US20100204151A1, “USE OF A PEPTIDE AS A THERAPEUTIC AGENT” (priority 2007, published 2010)

Test system: drug-resistant Mycobacterium tuberculosis
Conditions: peptide 10 micrograms per ml, seven days

Ac-HWAVGHL-NH2 [Acetyl-GRP (20-26), Ac-His-Trp-Ala-Val-Gly-His-Leu-NH2]
% inhibition: 0.0%
